Publication PMC8578629, “Photoactivated cell-killing amino-based flavylium compounds” (Scientific Reports, 2021)

System: HaCaT cells
Test: Cellular uptake by HaCaT cells (overall uptake, adsorption/absorption ratio, kinetics)
Assay type: in vitro ADME, human
Settings: 4 h incubation, 6.25–100 μM
Description: The cellular uptake of the different compounds by HaCaT cells was determined following the protocol: cells were seeded at a density of 4 × 10^4 cells/well onto 12-well plates (1060 μL per well) and after 24 h the compounds were added to the plates in different concentrations (6.25–100 μM; 1060 μL per well) and incubated for a period of 4 h at 37 °C in an atmosphere of 5% CO2 and in the presence of DMEM with 2% FBS. Then, the medium with the compounds was removed, cells are washed with PBS to remove any extracellular compounds and the same volume of DMSO (1060 µL) was added to cells. After 60 min in the dark, the plates were submitted to fluorescence determination. The fluorescence intensity of each well was then recorded at the different wavelength pairs specific for each tested compound (ex/em) in a FlexStation 3 Multi-Mode Microplate Reader. The fluorescence values were then used to plot into the corresponding calibration curves and the uptake amounts were determined. • Fl577/658 = 19.734 × Conc (7NEt24′NMe2), μM; Fl577/769 = 0.2869 × Conc (7NEt2st4′NMe2), μM; • Fl577/635 = 24.556 × Conc (7NEt24′NH2), μM; Fl577/635 = 42.851 × Conc (PpIX), μM;
The ratio between the absorption and surface adsorption by HaCaT for each compound was performed. Cells were seeded in the same conditions as previously stated. After 24 h, compounds were added to the plates at the concentration of 100 μM (1060 μL per well) and incubated for a period of 4 h at 37 °C in an atmosphere of 5% CO2 and in the presence of DMEM with 2% FBS. After incubation, the medium with the compounds was removed and Dulbecco’s phosphate buffer (DPBS) was added (1060 μL per well). The fluorescence intensity of each well was then determined at the different wavelength pairs specific for each tested compound (ex/em) using a FlexStation 3 Multi‐Mode Microplate Reader. After this, 300 μL of Trypan Blue was added ([…]) to each well and the fluorescence intensity was determined in the same conditions. Cells with DPBS and cells with DPBS + Trypan Blue were used as controls. • Fl577/658 = 19.734 × Conc (7NEt24′NMe2), μM; Fl577/769 = 0.2869 × Conc (7NEt2st4′NMe2), μM; • Fl577/635 = 24.556 × Conc (7NEt24′NH2), μM; Fl577/635 = 42.851 × Conc (PpIX), μM;
The cellular uptake kinetics of the different compounds by HaCaT cells was determined as follows: cells were seeded at a density of 4 × 10^4 cells/well onto 12-well plates (1060 μL per well) and after 24 h compounds were added to the plates at a concentration of 100 μM (1060 μL per well) and incubated for different time periods (15, 30, 60, 120, 180 and 240 min) at 37 °C in an atmosphere of 5% CO2 and in the presence of DMEM with 2% FBS. After each time period, the medium with the compounds was removed and DMSO was added to cells. After 60 min in the dark the plates were submitted to fluorescence determination. The fluorescence intensity of each well was then determined at the different wavelength pairs specific for each tested compound (ex/em) (FlexStation 3 Multi-Mode Microplate Reader). The fluorescence values were then used to plot into the corresponding calibration curves and the uptake amounts were determined.

Row | SMILES | Uptake amount, range over the initial concentrations
1 | CCN(CC)c1ccc2ccc(/C=C/c3ccc(N(C)C)cc3)[o+]c2c1 [7NEt2st4′NMe2, 7-(diethylamino)-2-(4′-dimethylaminostyryl)-benzopyrylium] | 3.564–5.830%
2 | CCN(CC)c1ccc2ccc(-c3ccc(N)cc3)[o+]c2c1 [7NEt24′NH2, 4′-amino-7-diethylamino-benzopyrylium] | 1.229–2.192%
3 | CCN(CC)c1ccc2ccc(-c3ccc(N(C)C)cc3)[o+]c2c1 [7NEt24′NMe2, 7-diethylamino-4′-dimethylamino-benzopyrylium] | 2.745–4.156%

Same assay, conditions: initial concentration 6.25 μM, 4 h

Row | SMILES | % Uptake ± SEM [%]
4 | CCN(CC)c1ccc2ccc(/C=C/c3ccc(N(C)C)cc3)[o+]c2c1 [7NEt2st4′NMe2, 7-(diethylamino)-2-(4′-dimethylaminostyryl)-benzopyrylium] | 4.448 ± 0.876
5 | CCN(CC)c1ccc2ccc(-c3ccc(N)cc3)[o+]c2c1 [7NEt24′NH2, 4′-amino-7-diethylamino-benzopyrylium] | 1.229 ± 0.296
6 | CCN(CC)c1ccc2ccc(-c3ccc(N(C)C)cc3)[o+]c2c1 [7NEt24′NMe2, 7-diethylamino-4′-dimethylamino-benzopyrylium] | 3.416 ± 0.629
7 | C=CC1=C(C)c2cc3[nH]c(cc4nc(cc5[nH]c(cc1n2)c(C)c5CCC(=O)O)C(CCC(=O)O)=C4C)c(C)c3C=C [PpIX, protoporphyrin IX, reference compound] | 0.694 ± 0.110

Same assay, conditions: initial concentration 12.5 μM, 4 h

Row | SMILES | % Uptake ± SEM [%]
8 | CCN(CC)c1ccc2ccc(/C=C/c3ccc(N(C)C)cc3)[o+]c2c1 [7NEt2st4′NMe2, 7-(diethylamino)-2-(4′-dimethylaminostyryl)-benzopyrylium] | 4.236 ± 0.628
9 | CCN(CC)c1ccc2ccc(-c3ccc(N)cc3)[o+]c2c1 [7NEt24′NH2, 4′-amino-7-diethylamino-benzopyrylium] | 1.828 ± 0.419
10 | CCN(CC)c1ccc2ccc(-c3ccc(N(C)C)cc3)[o+]c2c1 [7NEt24′NMe2, 7-diethylamino-4′-dimethylamino-benzopyrylium] | 4.156 ± 0.764
11 | C=CC1=C(C)c2cc3[nH]c(cc4nc(cc5[nH]c(cc1n2)c(C)c5CCC(=O)O)C(CCC(=O)O)=C4C)c(C)c3C=C [PpIX, protoporphyrin IX, reference compound] | 0.615 ± 0.050

Same assay, conditions: initial concentration 25 μM, 4 h

Row | SMILES | % Uptake ± SEM [%]
12 | CCN(CC)c1ccc2ccc(/C=C/c3ccc(N(C)C)cc3)[o+]c2c1 [7NEt2st4′NMe2, 7-(diethylamino)-2-(4′-dimethylaminostyryl)-benzopyrylium] | 3.564 ± 0.613
13 | CCN(CC)c1ccc2ccc(-c3ccc(N)cc3)[o+]c2c1 [7NEt24′NH2, 4′-amino-7-diethylamino-benzopyrylium] | 1.977 ± 0.581
14 | CCN(CC)c1ccc2ccc(-c3ccc(N(C)C)cc3)[o+]c2c1 [7NEt24′NMe2, 7-diethylamino-4′-dimethylamino-benzopyrylium] | 2.745 ± 0.504
15 | C=CC1=C(C)c2cc3[nH]c(cc4nc(cc5[nH]c(cc1n2)c(C)c5CCC(=O)O)C(CCC(=O)O)=C4C)c(C)c3C=C [PpIX, protoporphyrin IX, reference compound] | 0.508 ± 0.021

Same assay, conditions: initial concentration 50 μM, 4 h

Row | SMILES | % Uptake ± SEM [%]
16 | CCN(CC)c1ccc2ccc(/C=C/c3ccc(N(C)C)cc3)[o+]c2c1 [7NEt2st4′NMe2, 7-(diethylamino)-2-(4′-dimethylaminostyryl)-benzopyrylium] | 4.091 ± 0.552
17 | CCN(CC)c1ccc2ccc(-c3ccc(N)cc3)[o+]c2c1 [7NEt24′NH2, 4′-amino-7-diethylamino-benzopyrylium] | 2.192 ± 0.662
18 | CCN(CC)c1ccc2ccc(-c3ccc(N(C)C)cc3)[o+]c2c1 [7NEt24′NMe2, 7-diethylamino-4′-dimethylamino-benzopyrylium] | 3.660 ± 0.831
19 | C=CC1=C(C)c2cc3[nH]c(cc4nc(cc5[nH]c(cc1n2)c(C)c5CCC(=O)O)C(CCC(=O)O)=C4C)c(C)c3C=C [PpIX, protoporphyrin IX, reference compound] | 0.667 ± 0.040

Same assay, conditions: initial concentration 100 μM, 4 h

Row | SMILES | % Uptake ± SEM [%]
20 | CCN(CC)c1ccc2ccc(/C=C/c3ccc(N(C)C)cc3)[o+]c2c1 [7NEt2st4′NMe2, 7-(diethylamino)-2-(4′-dimethylaminostyryl)-benzopyrylium] | 5.830 ± 1.569
21 | CCN(CC)c1ccc2ccc(-c3ccc(N)cc3)[o+]c2c1 [7NEt24′NH2, 4′-amino-7-diethylamino-benzopyrylium] | 1.785 ± 0.383
22 | CCN(CC)c1ccc2ccc(-c3ccc(N(C)C)cc3)[o+]c2c1 [7NEt24′NMe2, 7-diethylamino-4′-dimethylamino-benzopyrylium] | 3.523 ± 0.695
23 | C=CC1=C(C)c2cc3[nH]c(cc4nc(cc5[nH]c(cc1n2)c(C)c5CCC(=O)O)C(CCC(=O)O)=C4C)c(C)c3C=C [PpIX, protoporphyrin IX, reference compound] | 0.659 ± 0.037

System: not listed separately
Test: Molar absorption coefficient (ɛ) at 630 nm
Assay type: physicochemical
Settings: DMSO
Description: The molar extinction coefficient or molar absorption (ɛ), of all synthesized pigments was determined in three different solvents (ethanol, methanol and DMSO). For each pigment, in each solvent, a range of concentrations was prepared and then the spectrum of each solution was read. Finally, the respective absorbances (collected at 630 nm) were represented as a function of concentration and the ɛ value was taken from the slope value of the equation curve.

Row | SMILES | Molar absorption coefficient ɛ at 630 nm
24 | CCN(CC)c1ccc2ccc(/C=C/c3ccc(N(C)C)cc3)[o+]c2c1 [7NEt2st4′NMe2, 7-(diethylamino)-2-(4′-dimethylaminostyryl)-benzopyrylium] | 15,728 M^−1 cm^−1
25 | CCN(CC)c1ccc2ccc(-c3ccc(N)cc3)[o+]c2c1 [7NEt24′NH2, 4′-amino-7-diethylamino-benzopyrylium] | 5687 M⁻¹ cm⁻¹
26 | CCN(CC)c1ccc2ccc(-c3ccc(N(C)C)cc3)[o+]c2c1 [7NEt24′NMe2, 7-diethylamino-4′-dimethylamino-benzopyrylium] | 11,031 M^−1 cm^−1
27 | C=CC1=C(C)c2cc3[nH]c(cc4nc(cc5[nH]c(cc1n2)c(C)c5CCC(=O)O)C(CCC(=O)O)=C4C)c(C)c3C=C [PpIX, protoporphyrin IX, reference compound] | 3207 M⁻¹ cm⁻¹

Same assay, conditions: Ethanol

Row | SMILES | Molar absorption coefficient ɛ at 630 nm
28 | CCN(CC)c1ccc2ccc(/C=C/c3ccc(N(C)C)cc3)[o+]c2c1 [7NEt2st4′NMe2, 7-(diethylamino)-2-(4′-dimethylaminostyryl)-benzopyrylium] | 16,281 M^−1 cm^−1
29 | CCN(CC)c1ccc2ccc(-c3ccc(N)cc3)[o+]c2c1 [7NEt24′NH2, 4′-amino-7-diethylamino-benzopyrylium] | 2225 M⁻¹ cm⁻¹
30 | CCN(CC)c1ccc2ccc(-c3ccc(N(C)C)cc3)[o+]c2c1 [7NEt24′NMe2, 7-diethylamino-4′-dimethylamino-benzopyrylium] | 10,725 M^−1 cm^−1

Same assay, conditions: Methanol

Row | SMILES | Molar absorption coefficient ɛ at 630 nm
31 | CCN(CC)c1ccc2ccc(/C=C/c3ccc(N(C)C)cc3)[o+]c2c1 [7NEt2st4′NMe2, 7-(diethylamino)-2-(4′-dimethylaminostyryl)-benzopyrylium] | 22,749 M^−1 cm^−1
32 | CCN(CC)c1ccc2ccc(-c3ccc(N)cc3)[o+]c2c1 [7NEt24′NH2, 4′-amino-7-diethylamino-benzopyrylium] | 1682 M⁻¹ cm⁻¹
33 | CCN(CC)c1ccc2ccc(-c3ccc(N(C)C)cc3)[o+]c2c1 [7NEt24′NMe2, 7-diethylamino-4′-dimethylamino-benzopyrylium] | 8,720 M^−1 cm^−1

System: not listed separately
Test: Maximum absorption wavelength of the flavylium cation
Assay type: physicochemical
Settings: species adsorbed/absorbed in cells

Row | SMILES | Maximum absorption wavelength of the flavylium cation [nm]
34 | CCN(CC)c1ccc2ccc(/C=C/c3ccc(N(C)C)cc3)[o+]c2c1 [7NEt2st4′NMe2, 7-(diethylamino)-2-(4′-dimethylaminostyryl)-benzopyrylium] | 672
35 | CCN(CC)c1ccc2ccc(-c3ccc(N)cc3)[o+]c2c1 [7NEt24′NH2, 4′-amino-7-diethylamino-benzopyrylium] | 575
36 | CCN(CC)c1ccc2ccc(-c3ccc(N(C)C)cc3)[o+]c2c1 [7NEt24′NMe2, 7-diethylamino-4′-dimethylamino-benzopyrylium] | 596

System: not listed separately
Test: Oxygen singlet production by Singlet Oxygen Sensor Green assay
Settings: compound 25 μM, after white light irradiation 79.2 J cm^−2
Description: The production of singlet oxygen by the different amino-based compounds in solution was determined as follows: a stock solution of Singlet Oxygen Sensor Green was prepared at 5 mM in methanol (MeOH). Working solutions of the probe were prepared at 2 mM in 100 mM pH 7.5 Tris buffer and in 100 mM pH 7.5 Tris buffer with 10 mM of Sodium Azide. The compounds were then prepared at a stock concentration of 500 μM and the working solutions were prepared in 100 mM pH 7.5 Tris buffer and in 100 mM pH 7.5 Tris buffer with 10 mM of Sodium Azide. 1 μL of Singlet Oxygen Sensor Green working solutions and 100 μL of compounds solution were mixed to a final volume of 1000 μL (in 100 mM pH 7.5 Tris buffer or in 100 mM pH 7.5 Tris buffer with 10 mM of Sodium Azide). 100 μL of each solution was then added to a 96-well black plate and 100 μL of Deuterium Oxide was added for a final concentration of 1 μM Singlet Oxygen Sensor Green and 25 μM for the different amino-based compounds. The fluorescence was then registered in a spectrofluorometer using excitation/emission of 488/525 nm. After this procedure, the wells were irradiated with a white light source with a total of 79.2 J cm^−2, corresponding to a total irradiation time of 1 h (6 pulses of 10 min) and then, the fluorescence determined using the same excitation/emission pair. As a positive control, Methylene Blue was used at a final concentration of 10 μM. The oxygen singlet production methodology was performed in a dark room.

Row | SMILES | ^1O2 production [%]
37 | CCN(CC)c1ccc2ccc(/C=C/c3ccc(N(C)C)cc3)[o+]c2c1 [7NEt2st4′NMe2, 7-(diethylamino)-2-(4′-dimethylaminostyryl)-benzopyrylium] | 181.2 ± 22.23
38 | CCN(CC)c1ccc2ccc(-c3ccc(N)cc3)[o+]c2c1 [7NEt24′NH2, 4′-amino-7-diethylamino-benzopyrylium] | 173.1 ± 15.73
39 | CCN(CC)c1ccc2ccc(-c3ccc(N(C)C)cc3)[o+]c2c1 [7NEt24′NMe2, 7-diethylamino-4′-dimethylamino-benzopyrylium] | 131.2 ± 3.90
40 | C=CC1=C(C)c2cc3[nH]c(cc4nc(cc5[nH]c(cc1n2)c(C)c5CCC(=O)O)C(CCC(=O)O)=C4C)c(C)c3C=C [PpIX, protoporphyrin IX, reference compound] | 263.3 ± 12.28
